Data published in patent US20080089957A1, “Monocotyledon plant indications extract compositions, method of preparation and pharmaceutical compositions containing them” (priority 2006, published 2008).
Where a name gives a salt, the structure may show the parent alone. Read-outs that look alike come from different tables or passages of the source.

Legend:
[1] = target: xanthine oxidase (UniProt P80457); assay: Xanthine oxidase inhibitory activity assay, spectrophotometric at 295 nm; format: biochemical
Procedure: A reaction mixture containing 200 mM sodium pyrophosphate buffer (pH 7.5), 100 mM xanthine and 0.05 unit xanthine oxidase was prepared. […] All determinations were performed in triplicate and samples were tested further to ascertain the corresponding IC50 values.

[2] = system: phosphodiesterases; assay: Phosphodiesterase inhibitory activity assay, bis(p-nitrophenyl phosphate), 405 nm; format: biochemical
Procedure: The inhibitory effect on phosphodiesterases was measured spectrophotometrically at 405 nm. A reaction mixture containing 300 μl of 100 mM Tris buffer (pH 8.9), 600 μl of 1 mM Bis(p-nitrophenyl phosphate), 100 μl of sample and 100 μl of enzyme was used for analysis. The absorption increments at 405 nm indicated formation of […] at room temperature, and the initial velocity was calculated. The inhibitory activity of phosphodiesterases was assessed as % inhibition=(1−β/α)×100, where α is the change in absorbance per minute without the sample (A blank with enzyme−A blank without enzyme), and β is the change in absorbance per minute with the sample (A test with enzyme−A test without enzyme).

[3] = Table 3, triplicate, read-out: IC50 ± SEM
[4] = unit inferred, read-out: IC50 on xanthine oxidase

IC50 [1, 3] [µM]	IC50 [1, 4] [µM]	Compound	other results
> 200		COc1nc(N)nc2nc[nH]c12 [6-O-Methylguanine]	
	92.42 ± 0.62	Nc1nc2nc[nH]c2c(=S)[nH]1 [6-Thioguanine]	
> 200		Nc1nc(N)c2[nH]cnc2n1 [2,6-Diaminopurine]	
> 200		Nc1ncc2[nH]cnc2n1 [2-Aminopurine]	

The remaining lines, values behind:

Compound	IC50 [1, 3] [µM]	IC50 [1, 4] [µM]	other results
Nc1nc(Cl)c2nc[nH]c2n1 [2-Amino-6-chloropurine]	> 200		
O=[N+]([O-])c1ccc2[nH]cnc2c1 [5-Nitrobenzimidazole nitrate salt]		86.84 ± 0.51	
Cc1ccc2[nH]cnc2c1 [5-Methylbenzimidazole]	> 200		
Nc1ncnc2[nH]ncc12 [4-Aminopyrazolo[3,4-d]pyrimidine]		30.26 ± 0.23	
Cc1cc2nc[nH]c2cc1C [5,6-Dimethylbenzimidazole]	> 200		
O=C(O)/C=C(\CC(=O)O)C(=O)O [trans-aconitic acid]			phosphodiesterase inhibitory activity [2]: phosphodiesterase inhibitor
